Numbers after ± are expanded uncertainties.
Test: activity coefficient (dimensionless); of the first substance listed, at infinite dilution; xn = mol fraction of the nth substance listed
Settings: 100 kPa, Liquid, Chromatography, x1 = 0

Compound	activity coefficient (308.15 K)	activity coefficient (318.15 K)	activity coefficient (328.15 K)	activity coefficient (338.15 K)	activity coefficient (348.15 K)	activity coefficient (358.15 K)	activity coefficient (368.15 K)	activity coefficient (378.15 K)	activity coefficient (388.15 K)	activity coefficient (398.15 K)	activity coefficient (408.15 K)
CCCCCCCCC [nonane] + CC(O)C(=O)[O-].CC[N+]1(C)CCCC1	518 ± 45	474 ± 41	423 ± 37	389 ± 34	358 ± 31	326 ± 28	297 ± 26				
CCC[N+](=O)[O-] [1-nitropropane] + CC(O)C(=O)[O-].CC[N+]1(C)CCCC1		1.75 ± 0.15	1.8 ± 0.15	1.86 ± 0.16	1.92 ± 0.16	1.98 ± 0.17	2.06 ± 0.18				
O [water] + CC(O)C(=O)[O-].CC[N+]1(C)CCCC1							0.046	0.052	0.059	0.066 ± 0.03	0.072 ± 0.03
C=CCCCCC [1-heptene] + CC(O)C(=O)[O-].CC[N+]1(C)CCCC1	88.8 ± 7.7	83.8 ± 7.3	78.7 ± 6.8	75.2 ± 6.5	71.9 ± 6.2	68.8 ± 6	66.4 ± 5.7				
C=CCCCC [hex-1-ene] + CC(O)C(=O)[O-].CC[N+]1(C)CCCC1	56 ± 4.8	53.3 ± 4.6	50.9 ± 4.4	48.7 ± 4.2	46.6 ± 4	44.7 ± 3.9	42.9 ± 3.7				
C1CCCCCCC1 [cyclooctane] + CC(O)C(=O)[O-].CC[N+]1(C)CCCC1	95.8 ± 8.3	88.7 ± 7.7	82.1 ± 7.1	77.2 ± 6.7	72.6 ± 6.3	68 ± 5.9	63.9 ± 5.5				
CCC(=O)OC [methyl propanoate] + CC(O)C(=O)[O-].CC[N+]1(C)CCCC1		4.71 ± 0.41	4.79 ± 0.41	4.88 ± 0.42	4.97 ± 0.43	5.06 ± 0.44	5.22 ± 0.45	5.32 ± 0.46			
CCCCO [butan-1-ol] + CC(O)C(=O)[O-].CC[N+]1(C)CCCC1						0.335 ± 0.036	0.361 ± 0.038	0.388 ± 0.039	0.421 ± 0.041	0.453 ± 0.043	0.486 ± 0.045
CC(C)CC(C)(C)C [2,2,4-trimethylpentane] + CC(O)C(=O)[O-].CC[N+]1(C)CCCC1	270 ± 23	242 ± 21	220 ± 19	201 ± 17	187 ± 16	173 ± 15	161 ± 14				
CCCC(=O)OC [methyl butanoate] + CC(O)C(=O)[O-].CC[N+]1(C)CCCC1		7.46 ± 0.64	7.56 ± 0.65	7.6 ± 0.66	7.74 ± 0.67	7.84 ± 0.68	8.01 ± 0.69	8.08 ± 0.7			
CCCCCCCC [octane] + CC(O)C(=O)[O-].CC[N+]1(C)CCCC1	334 ± 29	307 ± 27	275 ± 24	254 ± 22	236 ± 20	217 ± 19	200 ± 17				
CCCC(C)=O [pentan-2-one] + CC(O)C(=O)[O-].CC[N+]1(C)CCCC1		4.7 ± 0.41	4.78 ± 0.41	4.85 ± 0.42	4.93 ± 0.43	5.01 ± 0.43	5.14 ± 0.44				
Cc1ccccc1 [toluene] + CC(O)C(=O)[O-].CC[N+]1(C)CCCC1		5.36 ± 0.46	5.5 ± 0.47	5.62 ± 0.48	5.76 ± 0.5	5.89 ± 0.51	6.06 ± 0.52				
C1CCCC1 [cyclopentane] + CC(O)C(=O)[O-].CC[N+]1(C)CCCC1	31.7 ± 2.7	29.7 ± 2.6	28.2 ± 2.4	26.9 ± 2.3	25.7 ± 2.2	24.7 ± 2.1	23.5 ± 2				
C1CCCCC1 [cyclohexane] + CC(O)C(=O)[O-].CC[N+]1(C)CCCC1	52.7 ± 4.6	48.6 ± 4.2	45 ± 3.9	42.6 ± 3.7	40.6 ± 3.5	38.4 ± 3.3	36.3 ± 3.1				
C=CCCCCCCCC [1-decene] + CC(O)C(=O)[O-].CC[N+]1(C)CCCC1	349 ± 30	326 ± 28	302 ± 26	284 ± 25	268 ± 23	252 ± 22	238 ± 21				
C#CCCC [1-pentyne] + CC(O)C(=O)[O-].CC[N+]1(C)CCCC1	3.18 ± 0.27	3.43 ± 0.3	3.66 ± 0.32	3.95 ± 0.34	4.2 ± 0.4	4.46 ± 0.38	4.69 ± 0.4				
c1ccccc1 [benzene] + CC(O)C(=O)[O-].CC[N+]1(C)CCCC1		2.85 ± 0.25	2.94 ± 0.25	3.04 ± 0.26	3.14 ± 0.27	3.24 ± 0.28	3.36 ± 0.29				
CC(C)OC(C)C [diisopropyl ether] + CC(O)C(=O)[O-].CC[N+]1(C)CCCC1	55.3 ± 4.8	53.6 ± 4.6	52 ± 4.5	50.1 ± 4.3	48.6 ± 4.2	47.2 ± 4.1	45.9 ± 4				
Cc1ccc(C)cc1 [1,4-dimethylbenzene] + CC(O)C(=O)[O-].CC[N+]1(C)CCCC1		10 ± 0.9	10.1 ± 0.9	10.3 ± 0.9	10.4 ± 0.9	10.5 ± 0.9	10.7 ± 0.9				
CCC(C)(C)OC [2-methoxy-2-methylbutane] + CC(O)C(=O)[O-].CC[N+]1(C)CCCC1	27.9 ± 2.4	27.8 ± 2.4	27.3 ± 2.4	26.8 ± 2.3	26.3 ± 2.3	26.1 ± 2.3	25.8 ± 2.2				
CC1CCCCC1 [methylcyclohexane] + CC(O)C(=O)[O-].CC[N+]1(C)CCCC1	87.4 ± 7.6	80.7 ± 7	75 ± 6.5	69.7 ± 6	65.7 ± 5.7	61.8 ± 5.3	57.8 ± 5				
CCOC(C)=O [ethyl acetate] + CC(O)C(=O)[O-].CC[N+]1(C)CCCC1		5.04 ± 0.43	5.14 ± 0.44	5.23 ± 0.45	5.32 ± 0.46	5.43 ± 0.47	5.56 ± 0.48	5.66 ± 0.49			
CCOC(C)(C)C [2-ethoxy-2-methylpropane] + CC(O)C(=O)[O-].CC[N+]1(C)CCCC1	46.2 ± 4	45.2 ± 3.9	43.9 ± 3.8	42.5 ± 3.7	41.6 ± 3.6	40.7 ± 3.5	39.7 ± 3.4				
CC(C)=O [acetone] + CC(O)C(=O)[O-].CC[N+]1(C)CCCC1		1.93 ± 0.17	1.97 ± 0.17	2.03 ± 0.18	2.08 ± 0.18	2.14 ± 0.18	2.21 ± 0.19				
c1ccsc1 [thiophene] + CC(O)C(=O)[O-].CC[N+]1(C)CCCC1		1.29 ± 0.11	1.38 ± 0.12	1.47 ± 0.12	1.56 ± 0.13	1.64 ± 0.14	1.75 ± 0.15				
CCCCCCC [heptane] + CC(O)C(=O)[O-].CC[N+]1(C)CCCC1	213 ± 18	196 ± 17	180 ± 16	167 ± 14	154 ± 13	144 ± 12	133 ± 12				
CO [methanol] + CC(O)C(=O)[O-].CC[N+]1(C)CCCC1						0.086 ± 0.03	0.095 ± 0.03	0.105 ± 0.03	0.116 ± 0.03	0.125 ± 0.03	0.137 ± 0.029

Source: the NIST ThermoML archive (doi:10.1016/j.jct.2015.05.014)
